These results are taken from ChEMBL document CHEMBL3046689, “Volatile aldehydes are promising broad-spectrum postharvest insecticides” (J Agric Food Chem, 2000).

Series [1] deals with Citrus x paradisi. As to the kind of experiment: Phytotoxicity in Citrus x paradisi (grape fruit) assessed as induction of visual damage after compound application for 1 hr through two-tier reduced pressure fumigation at 30 mmHg for 0.5 hr and then 760 mmHg for 1.5 hr at 23 +/- 1 degC. The class given is organism-based. The settings on record: in vivo.
The next series relates to Citrus limon. Put plainly: Phytotoxicity in Citrus limon (lemon) assessed as induction of olfactory damage after compound application for 1 hr through two-tier reduced pressure fumigation at 30 mmHg for 0.5 hr and then 760 mmHg for 1.5 hr at 23 +/- 1 degC. Type of series: organism-based. The conditions noted are these: citrus x limon, in vivo.
The subject of series [2] is Citrus x paradisi. Put plainly: Phytotoxicity in Citrus x paradisi (grape fruit) assessed as induction of olfactory damage after compound application for 1 hr through two-tier reduced pressure fumigation at 30 mmHg for 0.5 hr and then 760 mmHg for 1.5 hr at 23 +/- 1 degC. The class given is organism-based. The conditions noted are these: in vivo.
The subject of series [3] is Brassica oleracea var. italica. Put plainly: Phytotoxicity in Brassica oleracea var. italica assessed as induction of olfactory damage after compound application for 1 hr through two-tier reduced pressure fumigation at 30 mmHg for 0.5 hr and then 760 mmHg for 1.5 hr at 23 +/- 1 degC. The settings on record: in vivo. Type of series: organism-based.
The next series concerns Lactuca sativa. As to the kind of experiment: Phytotoxicity in wrapped Lactuca sativa (lettuce) assessed as induction of olfactory damage after compound application for 1 hr through two-tier reduced pressure fumigation at 30 mmHg for 0.5 hr and then 760 mmHg for 1.5 hr at 23 +/- 1 degC. The settings on record: in vivo. The class given is organism-based.
Series [4] deals with Brassica oleracea var. capitata. Put plainly: Phytotoxicity in Brassica oleracea var. capitata (cabbage) after compound application for 1 hr through two-tier reduced pressure fumigation at 30 mmHg for 0.5 hr and then 760 mmHg for 1.5 hr at 23 +/- 1 degC. Type of series: organism-based. The conditions noted are these: in vivo.
Series [5] relates to Brassica oleracea var. italica. Put plainly: Phytotoxicity in Brassica oleracea var. italica after compound application for 1 hr through two-tier reduced pressure fumigation at 30 mmHg for 0.5 hr and then 760 mmHg for 1.5 hr at 23 +/- 1 degC. The class given is organism-based. The settings on record: in vivo.
A further series relates to Myzus persicae. As to the kind of experiment: Insecticidal activity against Myzus persicae (green peach aphid) infested naked lettuce applied for 1 hr through two-tier reduced pressure fumigation at 30 mmHg for 0.5 hr and then 760 mmHg for 1.5 hr at 23 +/- 1 degC measured 24 hr. Type of series: functional, organism-based.

The structures appear in SMILES notation. Activity calls are given as the source filed them. The calls are words filed in the database; no cut-off is given here.

As for `CCC=O` [PROPIONALDEHYDE], the Activity entry was “Non-toxic” with Citrus x paradisi [1]; “Non-toxic” in the series on Citrus limon; “Non-toxic” in the series on Citrus x paradisi [2]; “Toxic” in series [3]; “Toxic” in the series with Lactuca sativa; “Toxic” in series [4]. In addition, the Activity result in series [5] is given as “Toxic”. The outcome in the series on Myzus persicae was Active.
